From PubChem BioAssay AID1963962 (Molecular Pharmacology Branch, DTP, NCI, 2024)
Several values for one entry are separate records, joined by “and”; a condition that tells them apart may be missing. Equal entries are not always repeated. Blank lines part the entries; values can stand above or below the molecule they belong to.

Tested on: 967376-340-R-J2-PDC multicell spheroid viability
Assay: Anticancer human tumor 967376-340-R-J2-PDC patient-derived colon adenocarcinoma cell line growth inhibition [PI3K]
Conditions: for viability, T/C: stronger effect = lower value
How it was run: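 Spheroid viability read-out. Co-cultures contained the tumor line plus HUVEC and human MSCs. Each agent was paired with a PI3K inhibitor (inavolisib, alpelisib, duvelisib, copanlisib) across half-log dilutions starting at clinical Cmax, or at 10 microM when Cmax was unknown.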

[1] = curve of first compound, second compound 0.00316 µM
[2] = curve of first compound, second compound 0.01 µM
[3] = curve of first compound, second compound 0.0316 µM
[4] = curve of first compound, second compound 0.1 µM
[5] = curve of first compound, second compound 0.316 µM
[6] = curve of first compound, second compound 1 µM
[7] = second compound 0.00316 µM, first compound 0.0316 µM
[8] = second compound 0.00316 µM, first compound 0.1 µM
[9] = second compound 0.00316 µM, first compound 0.316 µM
[10] = second compound 0.00316 µM, first compound 1 µM
[11] = second compound 0.00316 µM, first compound 3.16 µM
[12] = second compound 0.00316 µM, first compound 10 µM
[13] = second compound 0.01 µM, first compound 0.0316 µM
[14] = second compound 0.01 µM, first compound 0.1 µM
[15] = second compound 0.01 µM, first compound 0.316 µM
[16] = second compound 0.01 µM, first compound 1 µM
[17] = second compound 0.01 µM, first compound 3.16 µM
[18] = second compound 0.01 µM, first compound 10 µM
[19] = second compound 0.0316 µM, first compound 0.0316 µM
[20] = second compound 0.0316 µM, first compound 0.1 µM
[21] = second compound 0.0316 µM, first compound 0.316 µM
[22] = second compound 0.0316 µM, first compound 1 µM
[23] = second compound 0.0316 µM, first compound 3.16 µM
[24] = second compound 0.0316 µM, first compound 10 µM
[25] = second compound 0.1 µM, first compound 0.0316 µM
[26] = second compound 0.1 µM, first compound 0.1 µM
[27] = second compound 0.1 µM, first compound 0.316 µM
[28] = second compound 0.1 µM, first compound 1 µM
[29] = second compound 0.1 µM, first compound 3.16 µM
[30] = second compound 0.1 µM, first compound 10 µM
[31] = second compound 0.316 µM, first compound 0.0316 µM
[32] = second compound 0.316 µM, first compound 0.1 µM
[33] = second compound 0.316 µM, first compound 0.316 µM
[34] = second compound 0.316 µM, first compound 1 µM
[35] = second compound 0.316 µM, first compound 3.16 µM
[36] = second compound 0.316 µM, first compound 10 µM
[37] = second compound 1 µM, first compound 0.0316 µM
[38] = second compound 1 µM, first compound 0.1 µM
[39] = second compound 1 µM, first compound 0.316 µM
[40] = second compound 1 µM, first compound 1 µM
[41] = second compound 1 µM, first compound 3.16 µM
[42] = second compound 1 µM, first compound 10 µM
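Note: spheroids exposed to agents for 7 days before read-out.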
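Throughout, for viability, T/C: luminescence used as surrogate of cell viability.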

IC50 [1]: > 10 µM | IC50 [2]: > 10 µM | IC50 [3]: > 10 µM | IC50 [4]: 1.21 µM | IC50 [5]: 3.64 µM | IC50 [6]: < 0.0316 µM
Structure (SMILES): C#Cc1c(F)ccc2cc(O)cc(-c3ncc4c(N5CC6CCC(C5)N6)nc(OCC56CCCN5CC(F)C6)nc4c3F)c12 (stereo unspecified) + COc1c(OCCCN2CCOCC2)ccc2c3n(c(=NC(=O)c4cnc(N)nc4)nc12)CCN3
viability, T/C [7]: 89% | viability, T/C [8]: 99.1% | viability, T/C [9]: 101% | viability, T/C [10]: 109% | viability, T/C [11]: 91.8% | viability, T/C [12]: 84.7% | viability, T/C [13]: 94.2% | viability, T/C [14]: 102% | viability, T/C [15]: 79.2% | viability, T/C [16]: 91.6% | viability, T/C [17]: 77.9% | viability, T/C [18]: 62.9% | viability, T/C [19]: 83% | viability, T/C [20]: 82.5% | viability, T/C [21]: 81.5% | viability, T/C [22]: 77.1% | viability, T/C [23]: 81.8% | viability, T/C [24]: 57.3% | viability, T/C [25]: 68.4% | viability, T/C [26]: 61.8% | viability, T/C [27]: 58.1% | viability, T/C [28]: 48.8% | viability, T/C [29]: 47.1% | viability, T/C [30]: 49% | viability, T/C [31]: 56.1% | viability, T/C [32]: 48.2% | viability, T/C [33]: 53.7% | viability, T/C [34]: 42.3% | viability, T/C [35]: 63.6% | viability, T/C [36]: 29.8% | viability, T/C [37]: 42.9% | viability, T/C [38]: 40.9% | viability, T/C [39]: 44.2% | viability, T/C [40]: 40% | viability, T/C [41]: 40.7% | viability, T/C [42]: 18.6%

IC50 (curve of compound): > 0.1 µM
Structure (SMILES): Cn1ncnc1[C@H]1c2n[nH]c(=O)c3cc(F)cc(c23)N[C@@H]1c1ccc(F)cc1
viability, T/C (compound 0.000316 µM): 78.6% and 114% and 95.8% | viability, T/C (compound 0.001 µM): 82.5% and 93.1% and 84.2% | viability, T/C (compound 0.00316 µM): 90.3% and 94.6% and 70.5% | viability, T/C (compound 0.01 µM): 103% and 104% and 90.4% | viability, T/C (compound 0.0316 µM): 93.2% and 88.8% and 97.9% | viability, T/C (compound 0.1 µM): 92.5% and 99.6% and 94.7%

IC50 [1]: 6.69 µM | IC50 [2]: > 10 µM | IC50 [3]: 6.64 µM | IC50 [4]: 2.27 µM | IC50 [5]: 3.65 µM | IC50 [6]: 0.277 µM
Structure (SMILES): CC1(C)CCC(Nc2ncc(C(F)(F)F)c(-c3c[nH]c4c(P(C)(C)=O)c(C#N)ccc34)n2)CN1 (stereo unspecified) + CC(Nc1ccc2c(c1)OCCn1cc(N3C(=O)OCC3C(F)F)nc1-2)C(N)=O
viability, T/C [7]: 92.7% | viability, T/C [8]: 69.1% | viability, T/C [9]: 68% | viability, T/C [10]: 64.7% | viability, T/C [11]: 57.6% | viability, T/C [12]: 44.3% | viability, T/C [13]: 79% | viability, T/C [14]: 88.1% | viability, T/C [15]: 64.8% | viability, T/C [16]: 53.2% | viability, T/C [17]: 59.6% | viability, T/C [18]: 49% | viability, T/C [19]: 58.4% | viability, T/C [20]: 76.8% | viability, T/C [21]: 63.3% | viability, T/C [22]: 66.2% | viability, T/C [23]: 54.1% | viability, T/C [24]: 46.7% | viability, T/C [25]: 58.5% | viability, T/C [26]: 74.1% | viability, T/C [27]: 69.7% | viability, T/C [28]: 54% | viability, T/C [29]: 48.1% | viability, T/C [30]: 25.6% | viability, T/C [31]: 56.3% | viability, T/C [32]: 67.3% | viability, T/C [33]: 56.9% | viability, T/C [34]: 52.9% | viability, T/C [35]: 54.9% | viability, T/C [36]: 24.8% | viability, T/C [37]: 53.6% | viability, T/C [38]: 53.4% | viability, T/C [39]: 43.5% | viability, T/C [40]: 50.7% | viability, T/C [41]: 36.1% | viability, T/C [42]: 24.6%
